Laboratory results reported in paper PMC11802874, “The hypolipidemic effect of MI-883, the combined CAR agonist/ PXR antagonist, in diet-induced hypercholesterolemia model” (Nature Communications, 2025).
“And” between values parts separate entries of the source, which are not always exact repeats. Equal values may be shown once.

Columns and labels:
[1] = biological target: GRα (Homo sapiens, UniProt P04150); assay: Luciferase reporter gene assay GRα, HepG2; conditions: ligand: Dexamethasone 100 nM
Sequence of GRα (P04150 whole entry): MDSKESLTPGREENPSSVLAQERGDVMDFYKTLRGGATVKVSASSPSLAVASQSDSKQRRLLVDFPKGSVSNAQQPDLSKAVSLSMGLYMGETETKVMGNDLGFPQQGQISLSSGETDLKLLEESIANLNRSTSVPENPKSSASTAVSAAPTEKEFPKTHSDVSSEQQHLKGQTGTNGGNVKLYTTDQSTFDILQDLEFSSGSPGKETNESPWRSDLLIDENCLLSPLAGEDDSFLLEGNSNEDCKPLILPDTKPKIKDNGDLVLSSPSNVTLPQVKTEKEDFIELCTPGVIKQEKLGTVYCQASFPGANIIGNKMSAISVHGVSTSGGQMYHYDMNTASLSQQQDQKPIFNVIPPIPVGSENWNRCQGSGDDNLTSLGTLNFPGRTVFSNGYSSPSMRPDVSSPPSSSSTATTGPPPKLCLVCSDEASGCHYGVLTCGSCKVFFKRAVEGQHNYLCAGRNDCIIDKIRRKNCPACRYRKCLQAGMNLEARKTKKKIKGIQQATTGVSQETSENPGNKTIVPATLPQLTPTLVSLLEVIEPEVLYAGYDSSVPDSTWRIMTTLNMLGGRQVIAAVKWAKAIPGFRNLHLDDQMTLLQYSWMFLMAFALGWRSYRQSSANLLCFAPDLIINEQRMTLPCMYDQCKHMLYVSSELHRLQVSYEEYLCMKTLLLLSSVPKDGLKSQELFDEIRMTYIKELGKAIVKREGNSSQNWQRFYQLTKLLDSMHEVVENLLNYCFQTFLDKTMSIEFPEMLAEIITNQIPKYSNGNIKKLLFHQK
Text: Gal4-LBD constructs of tested nuclear receptors have been used together with pGL4.31[luc2P/GAL4UAS/Hygro] luciferase reporter construct and pRL-TK Renilla expression vector (both from Promega, Hercules, USA) in HepG2 cells transfected with Lipofectamine 2000 or 3000 reagents. For GRα and FXR receptors, full-length expression vectors have been used with pGRE-luc or pFXRE-luc luciferase constructs. For the aryl hydrocarbon receptor (AhR), p1A1-luc construct was used with only pRL-TK vector for transfection normalization. A dual reporter assay (Promega, Hercules, USA) was used to analyze both firefly and Renilla luciferase activities.
Gal4-LBD constructs of tested nuclear receptors have been used together with pGL5-luc luciferase reporter construct and pRL-TK Renilla expression vector in HepG2 cells transfected with Lipofectamine 2000 or 3000 reagents. For GRα and FXR receptors, full-length expression vectors have been used with pGRE-luc or pFXRE-luc luciferase constructs. For the aryl hydrocarbon receptor (AhR), p1A1-luc construct was used with only pRL-TK vector for transfection normalization. […] Bars represent means±S.D. (n=3).

[2] = biological target: T1, human CAR variant 3 (Homo sapiens, UniProt Q14994, DEL233-236); assay: CAR3 luciferase reporter assay (CYP2B6-luc) in HepG2 cells; type: cell-based
T1 construct: host or cells: HepG2
T1 sequence (Q14994 with tags, fused parts or gaps isoform Q14994-8 DEL233-236): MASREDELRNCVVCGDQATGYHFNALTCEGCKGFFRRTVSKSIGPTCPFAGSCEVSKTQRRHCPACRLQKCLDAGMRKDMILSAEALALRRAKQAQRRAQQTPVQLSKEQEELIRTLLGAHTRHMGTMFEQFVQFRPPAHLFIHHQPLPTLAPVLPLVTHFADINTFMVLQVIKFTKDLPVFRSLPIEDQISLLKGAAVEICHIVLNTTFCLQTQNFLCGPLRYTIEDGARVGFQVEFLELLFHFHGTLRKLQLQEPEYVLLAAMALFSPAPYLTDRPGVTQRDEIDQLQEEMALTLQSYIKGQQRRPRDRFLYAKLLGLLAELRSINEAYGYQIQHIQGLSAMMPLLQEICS
T1 sequence (P19793 1-462 partner): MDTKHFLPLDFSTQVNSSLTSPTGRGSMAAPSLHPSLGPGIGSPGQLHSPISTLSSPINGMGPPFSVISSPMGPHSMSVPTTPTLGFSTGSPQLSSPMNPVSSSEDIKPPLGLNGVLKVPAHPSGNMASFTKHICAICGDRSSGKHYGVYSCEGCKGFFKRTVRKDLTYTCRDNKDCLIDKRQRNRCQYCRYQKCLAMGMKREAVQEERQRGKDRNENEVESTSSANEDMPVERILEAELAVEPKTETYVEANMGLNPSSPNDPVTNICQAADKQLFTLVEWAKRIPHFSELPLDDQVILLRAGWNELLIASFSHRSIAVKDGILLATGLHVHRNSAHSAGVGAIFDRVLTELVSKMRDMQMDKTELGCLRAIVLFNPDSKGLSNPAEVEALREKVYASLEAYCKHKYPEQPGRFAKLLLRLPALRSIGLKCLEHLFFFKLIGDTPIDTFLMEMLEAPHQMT
Experimental: CAR3 luciferase reporter assay (with CYP2B6-luc) was performed in human hepatocellular carcinoma HepG2 cells as we described[19] For the CAR3 assay (Fig. 1d), a CYP2B6-luc reporter plasmid (originally entitled B-1.6k/PB/XREM) was kindly donated by Dr. Hongbing Wang (University of Maryland School of Pharmacy, Baltimore, MD, USA). All expression vectors are described in Supplementary, Chapter 4).
Cells were treated for 24 h with MI-883 in a range of concentration from 0.1 nM to 30 µM (n = 3). The half maximal effective concentration (EC50) to activate CAR or inhibit PXR (IC50) in the assays was calculated from at least eight points of the dose-response curves using the GraphPad Prism software.

[3] = Metabolic stability in human liver S9 fraction; conditions: human, liver S9 fraction
Experimental: (§1) Shimadzu HPLC system including vacuum degasser, gradient pumps, reverse phase HPLC column, column oven, and autosampler with an API 4000 QTRAP mass spectrometer (Applied Biosystems/MDS Sciex (AB Sciex) with Turbo V ion source and TurboIonspray interface were used. The reference compound midazolam, which is metabolized both by phase I and phase II enzymes, was used. The elimination constant (kel), half-life (t1/2), and intrinsic clearance (Clint) were determined[19] (Table S1).
Supplementary Figure 1. […] Test compounds (1 μM, final DMSO concentration 1%) were incubated at 37 °C with shaking at 100 rpm. Four time points over 120 minutes have been analyzed. The reactions were stopped by adding 420 μL of acetonitrile-water mixture (90:10). Supernatants were analyzed by the HPLC system coupled with a tandem mass spectrometer. The percentage (in % of initial concertation) of the test compounds remaining after incubation in plasma and their half-lives (t1/2) were calculated. […] The stability of the compound was tested in human liver S9 fraction. Cofactors were used such as UDPGA (for glucuronidation), PAPS (for sulfation), and reduced glutathione (for conjugation of GSH). Compounds were tested in triplicate with or without NADPH. Propantheline and midazolam were used as unstable control compounds in the experiments. Data represent the means±S.D. from at least three independent samples.

[4] = Metabolic stability in mouse liver S9 fraction; conditions: male, CD-1, mouse, liver S9 fraction
Experimental: as §1

[5] = system: HepaRG KO CAR cells; assay: RT-qPCR mRNA expression in HepaRG KO CAR cells; type: cell-based, human; conditions: Phenobarbital 500 μM, CITCO 1 μM, MI 883 1 μM; ctrl = 1
Text: (§3) HepaRG cells from Biopredic (Rennes, France) were cultivated and differentiated on the 12-well plates. […] Several batches of HepaRG KO CAR (CAR Knockout HepaRG™ Cells, MTOX1012-1VL, RRID:CVCL_B6AA) and PXR Knockout HepaRG™ Cells, MTOX1011-1VL, RRID:CVCL_B6AS) cells have been obtained from Sigma-Aldrich/Merck (Darmstadt, Germany) and cultivated according to the provider’s protocols. […] Experiments with HepaRG KO PXR and HepaRG KO CAR cells have been performed in duplicates at least in two independent experiments.
(§4) RT-qPCR was used to examine gene expression in 2D and 3D PHH, HepaRG cells, or in mouse liver or intestine (ileum) samples as we have described before[60]–[62].
(§5) All qRT-qPCR experiments including Trizol reagent (Life Technologies) total RNA isolation, reverse-transcription using a random hexaprimer, and the MMLV Reverse Transcriptase Kit (ThermoFisher Scientific) we have described before^19. qPCR was performed using TaqMan Fast Advanced Master Mix with TaqMan probes (ThermoFisher Scientific). […] The delta-delta method was used for gene expression quantification normalized to at least two reference genes. Three technical replicates were used for each reaction considering the MIQE guidelines. Data are presented as fold induction to vehicle-treated cells/animals.

[6] = Mouse plasma protein binding; type: in vitro ADME
Text: (§2) Plasma protein binding, and stability in human and mouse plasma have been tested as previously described.

[7] = system: primary human hepatocytes (PHH); assay: RT-qPCR mRNA expression in 2D primary human hepatocytes
Text: The cells were cultivated as 2D monolayers according to the manufacturer’s protocol.
as §4

[8] = biological target: T2, human CAR ligand-binding domain (LBD) (Homo sapiens, UniProt Q14994); assay: TR-FRET CAR coactivator assay (LanthaScreen); type: biochemical
T2 construct: purchased ThermoFisher Scientific PV4836
T2 sequence (Q14994 109-348 isoform Q14994-2 limits assumed, other chains not shown): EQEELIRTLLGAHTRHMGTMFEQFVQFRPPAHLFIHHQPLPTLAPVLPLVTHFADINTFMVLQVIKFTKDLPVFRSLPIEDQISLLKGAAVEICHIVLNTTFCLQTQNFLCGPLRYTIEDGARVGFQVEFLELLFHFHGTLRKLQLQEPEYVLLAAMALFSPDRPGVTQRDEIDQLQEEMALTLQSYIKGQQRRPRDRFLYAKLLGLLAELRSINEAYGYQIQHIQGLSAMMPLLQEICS

[9] = system: HepaRG cells; assay: RT-qPCR mRNA expression in differentiated HepaRG cells; conditions: Phenobarbital 500 μM, CITCO 1 μM, MI 883 1 μM; ctrl = 1
Text: as §3, §4, §5

[10] = Stability in mouse plasma; type: in vitro ADME; conditions: read-out: Stability in mouse plasma, t1/2
Text: as §2

[11] = system: humanized PXR-CAR-CYP3A4/3A7 mice; assay: Hepatic induction study in humanized PXR-CAR-CYP3A4/3A7 mice (i.p.); type: in vivo, mouse; conditions: single agents i.p.: Rif 3×5 mg/kg, CITCO 10 mg/kg two doses, MI-883 10 mg/kg 3 days
Text: In the induction experiments, […] was sampled from the gallbladder.

[12] = single agent 5 μM: MI-883, CITCO (5 μM) alone

C[C@@H]1C[C@H]2[C@@H]3CCC4=CC(=O)C=C[C@]4(C)[C@@]3(F)[C@@H](O)C[C@]2(C)[C@@]1(O)C(=O)CO [Dexamethasone]
NRs assays: GRa (relative to ctrl, replicates) [1]: 19.01 and 18.01 and 16.69

Clc1ccc(-c2nc3sccn3c2C=NOCc2ccc(Cl)c(Cl)c2)cc1 [CITCO, 6-(4-chlorophenyl)imidazo[2,1-b][1,3]thiazole-5-carbaldehyde-O-(3,4-dichlorobenzyl)oxime, reference compound]
CAR3 variant activation (Fig. 1d), replicates ([2]; concentration 0.01 (unit not given), HepG2, 24 h): 0.85 and 0.95 and 1.03
CAR3 variant activation (Fig. 1d), replicates ([2]; concentration 0.1 (unit not given)): 0.4 and 1 and 3.5
CAR3 variant activation (Fig. 1d), replicates ([2]; concentration 1 (unit not given)): 1.25 and 6.4 and 1.2
CAR3 variant activation (Fig. 1d), replicates ([2]; concentration 10 (unit not given)): 10 and 12.8 and 12
CAR3 variant activation (Fig. 1d), replicates ([2]; concentration 30 (unit not given)): 20.7 and 11.1 and 15.3
half-life at 2 µM [3]: 22.5 min
microsomal CLint at 2 µM [3]: 15 µL/min/mg
half-life [4]: 39.2 min
microsomal CLint [4]: 9 µL/min/mg
CYP2B6 mRNA, RT-qPCR, HepaRG KO CAR (Fig. 1f), replicates [5]: 1.15 and 1.05 and 0.84
fraction unbound [6]: 0.02
CYP2B6 mRNA, RT-qPCR, PHH (Fig. 1g), replicates ([7]; 1 mM, ctrl = 1): 10.10 and 18.10 and 7.00
CYP2B6 mRNA in PHH 2 donors (Fig. 3c) [7, 12]: 11.1246 and 12.1237
CYP3A4 mRNA in PHH 2 donors (Fig. 3c) [7, 12]: 2.55 and 3.999
TR-FRET CAR Coactivator assay, mean signal (Fig. 1b) ([8]; 100pM): 1
TR-FRET CAR Coactivator assay, mean signal (Fig. 1b) ([8]; 1nM): 1.176
TR-FRET CAR Coactivator assay, mean signal (Fig. 1b) ([8]; 10nM): 1.375
TR-FRET CAR Coactivator assay, mean signal (Fig. 1b) ([8]; 30nM): 1.960
TR-FRET CAR Coactivator assay, mean signal (Fig. 1b) ([8]; 100nM): 2.115
TR-FRET CAR Coactivator assay, mean signal (Fig. 1b) ([8]; 0.5μM): 2.111
TR-FRET CAR Coactivator assay, mean signal (Fig. 1b) ([8]; 1 μM): 2.154
TR-FRET CAR Coactivator assay, mean signal (Fig. 1b) ([8]; 10 μM): 2.134
TR-FRET CAR Coactivator assay, mean signal (Fig. 1b) ([8]; 30 μM): 2.146
CYP2B6 mRNA, RT-qPCR, HepaRG (Fig. 1f), replicates [9]: 6.95 and 5.3 and 5.5
half-life [10]: > 120 min
hepatic CYP3A4 mRNA, hPXR/hCAR/CYP3A4/7 mice (Fig. 3e), individual animals [11]: 3.5706 and 5.153 and 1.198 and 3.457
hepatic Cyp2b10 mRNA, hPXR/hCAR/CYP3A4/7 mice (Fig. 3e), individual animals [11]: 6.356 and 6.521 and 7.777 and 9.457
